The text below walks through data of paper PMC11267548 (JACS Au, 2024).

The test concerns the target T1, ScGPUT (Solitalea canadensis, UniProt H8KMA8).
T1 sequence (H8KMA8 1-293): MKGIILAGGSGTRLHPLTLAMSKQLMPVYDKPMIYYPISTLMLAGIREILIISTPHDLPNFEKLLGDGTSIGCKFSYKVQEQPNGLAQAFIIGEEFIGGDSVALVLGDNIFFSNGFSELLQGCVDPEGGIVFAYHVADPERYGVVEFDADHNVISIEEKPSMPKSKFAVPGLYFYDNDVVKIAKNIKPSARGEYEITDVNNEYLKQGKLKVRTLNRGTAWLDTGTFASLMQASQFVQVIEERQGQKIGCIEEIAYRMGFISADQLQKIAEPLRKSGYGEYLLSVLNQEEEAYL
As to the kind of experiment: conversion of xylose-1-phosphate to UDP-xylose, TLC. It is filed as biochemical. Conditions: read-out: % inhibition at 10 mM.

The inhibition is how much of the control response was suppressed. For the molecule `Nc1ncnc2c1ncn2[C@@H]1O[C@H](COP(=O)(O)OP(=O)(O)O)[C@@H](O)[C@H]1O` [ADP], the inhibition at 10000 µM was greater than 50%. In the case of `Nc1ncnc2c1ncn2[C@@H]1O[C@H](COP(=O)(O)OP(=O)(O)OP(=O)(O)O)[C@@H](O)[C@H]1O` [ATP], the inhibition at 10000 µM is greater than 50%.
